“And” between values parts separate entries of the source, which are not always exact repeats. Identical values can stand only once.
Assays:
Format in all cases: cell-based
[1] = tested on: procollagen I; experiment: Procollagen I secretion in coculture of human aged fibroblasts and mature adipocytes (ELISA); details: for secretion of Procollagen I, normalized by fibroblasts number, in percentage of the coculture control condition, Values: individual replicates
Excerpt: (§1) In order to evaluate its effect on fibroblast matrix and its anti-inflammatory properties, the effect of compound 6 has been tested on an adipocytes-aged fibroblasts coculture model, mimicking the interactions between dermis and hypodermis in the skin and allowed to explore in parallel the biological effects of the products on two cellular targets.
(§2) • Experimental model: co-culture of human mature adipocytes cultured in 3D and human dermal fibroblasts cultured in 2D (AM3D-FB2D co-culture). This experimental model of AM3D-FB2D co-culture mimicked the interactions between dermis and hypodermis in the skin and allowed to explore in parallel the biological effects of the products on two cellular targets. • Donor characteristics: This study was performed on mature adipocytes and fibroblasts from two different donors (one donor for mature adipocytes and another donor for dermal fibroblasts). • Fibroblasts donor=person, BMI=28 kg/m^2 • Adipocytes donor=person, BMI=21.4 kg/m^2 • Treatment procedure: compound 6 was added to the co-culture medium daily for up to 6 days
(§3) Dermal fibroblasts were seeded in DMEM 10% FBS at 10000 cells/well. The day after, the adipocytes capsules of 50 μl were added in suspension above the fibroblasts and the medium was changed and replaced by a specific culture medium for the co-culture AM3D-FB2D. The formation of adipocytes capsules followed an internal standardized protocol. Briefly, the fully mature adipocytes were isolated from the hypodermis after digestion by collagenase. The isolated adipocytes were then washed with a wash buffer and encapsulated in a peptidic hydrogel to form 3D adipocytes capsules of 50 μl in size. Cells were incubated at 37° C. and 5% CO2 overnight for stabilization. Treatments were initiated at DO with a medium change at DO, D2, D3 and D5. The entire culture media of 24 h incubation was collected at D3 and D6, before being centrifugated and stored at −80° C. Each culture condition was done in triplicate.
(§4) The biochemical analyses on culture media were performed via ELISA using specific kits according to the manufacturer's recommendations: IL-6 (Duoset DY206, R&D Systems), and Hyaluronic Acid (HA) (Duoset, DY3614-05, R&D Systems and Procollagen I (Duoset, DY6220-05, R&D Systems) The results of HA and Procollagen I were normalized by fibroblasts cell number regarding the fact that these molecules were secreted mainly by fibroblasts. All the biochemical results were represented in percentage of the control condition.
To evaluate the effect of the compound 6 on fibroblasts' matrix, the extracellular concentrations of Procollagen I, that is secreted only by the fibroblasts, were measured at D3 and D6.

[2] = tested on: IL-6; experiment: IL-6 secretion in coculture of human aged fibroblasts and mature adipocytes (AM3D-FB2D, ELISA); details: for secretion of IL-6 in percentage of the coculture control condition, Values (%): individual replicates
Excerpt: as §1, §2, §3, §4
To evaluate the effect of the compound 6 on inflammation, the extracellular concentrations of IL-6, that is secreted by the fibroblasts but mainly by the adipocytes, were measured at D3 and D6.

[3] = tested on: Hyaluronic Acid (HA); experiment: Hyaluronic acid secretion in coculture of human aged fibroblasts and mature adipocytes (ELISA); details: for secretion of HA, normalized by fibroblasts number, in percentage of the coculture control condition, Values (%): individual replicates
Excerpt: as §1, §2, §3, §4
To evaluate the effect of the compound 6 on fibroblast's matrix, the extracellular concentrations of Hyaluronic Acid (HA), that is secreted only by the fibroblasts, were measured at D3 and D6.

[4] = tested on: human preadipocytes; experiment: Cytotoxicity (LDH release) on preadipocytes in inflammatory condition (AcMC); details: for Cytotoxicity at the end of the culture, normalized by cell number, Values: single replicates
Procedure: Preadipocytes have been isolated from human female hypodermis (body mass index <30 kg/m2 and <45 years old). Preadipocytes have been cultured for 24 h in 100 μl of DMEM-10% Fetal Bovine Serum (FBS) in 96-well plates. Then cells were treated to induce their differentiation in a classical or an inflammatory environment for 13 days.
To induce the preadipocytes differentiation cells were incubated in a proadipogenic cocktail (PAC) including insulin, glucocorticoid, 3-isobutyl-1-methylxanthine (IBMX), and thiazolinedione in DMEM.
To induce a fibro-inflammatory environment, cells were treated with an activated human macrophage-conditioned medium (AcMC) prepared in RPMI medium. A treatment with Dexamethasone (DXM) at 100 nM was used as anti-inflammatory response control. At D0: preadipocytes have been treated in the following conditions: • “Undifferentiation”: DMEM+¼ RPMI medium • “Differentiation”: PAC+¼ RPMI medium • “AcMC” i.e. inflammatory condition: PAC+¼ AcMC • “AcMC+DXM”: PAC+[…] AcMC+anti-inflammatory DXM at 100 nM • “AcMc+compounds”: PAC+14 AcMC+compounds to be tested
All conditions have been performed in triplicate. The medium has been changed every 2 days for 13 days.
At D14: during the last 24 h of culture, the medium has been replaced by DMEM/F12 medium in all conditions, to collect cells' secretions.
Cytotoxicity was assessed by the measurement of the lactate dehydrogenase (LDH) released by damaged cells in the culture medium (using the kit CytoTox-One Non-Radioactive Cytotoxicity Assay, G1780, Promega). Cells were treated with 0.2% of triton at the end of the culture to determine the maximal toxicity response. The LDH measurement was realized on 24 h medium secretions after 13 days of culture.
The results were normalized by cell number, determined by nuclei staining (with DAPI: 4′,6-Diamidino-2-Phenylindole, Dihydrochloride), and were represented in percentage of the lysis positive control. Compounds presenting a level of cytotoxicity below 20% compared to control were considered as non-toxic.
Quantity of LDH measured in medium was normalized by cell number in each culture condition. Data are represented in percentage of proinflammatory control conditions (AcMC condition).

N[C@H]1CCCN(CC(F)(F)[C@]2(O)O[C@H](CO)[C@H](O)[C@H](O)[C@H]2O)C1=O [Compound 6]
secretion of Procollagen I, normalized by fibroblasts number, in percentage of the coculture control condition, Mean ([1]; D3, 1 mg/ml): 163%
secretion of Procollagen I, normalized by fibroblasts number, in percentage of the coculture control condition, Values ([1]; D3, 1 mg/ml): 162% and 158% and 168%
secretion of Procollagen I, normalized by fibroblasts number, in percentage of the coculture control condition, Mean ([1]; D3, 2 mg/ml): 159%
secretion of Procollagen I, normalized by fibroblasts number, in percentage of the coculture control condition, Values ([1]; D3, 2 mg/ml): 177% and 144% and 157%
secretion of Procollagen I, normalized by fibroblasts number, in percentage of the coculture control condition, Mean ([1]; D3, 3 mg/ml): 173%
secretion of Procollagen I, normalized by fibroblasts number, in percentage of the coculture control condition, Values ([1]; D3, 3 mg/ml): 202% and 78% and 238%
secretion of Procollagen I, normalized by fibroblasts number, in percentage of the coculture control condition, Mean ([1]; D6, 1 mg/ml): 418%
secretion of Procollagen I, normalized by fibroblasts number, in percentage of the coculture control condition, Values ([1]; D6, 1 mg/ml): 312% and 472% and 469%
secretion of Procollagen I, normalized by fibroblasts number, in percentage of the coculture control condition, Mean ([1]; D6, 2 mg/ml): 411%
secretion of Procollagen I, normalized by fibroblasts number, in percentage of the coculture control condition, Values ([1]; D6, 2 mg/ml): 284% and 488% and 460%
secretion of Procollagen I, normalized by fibroblasts number, in percentage of the coculture control condition, Mean ([1]; D6, 3 mg/ml): 474%
secretion of Procollagen I, normalized by fibroblasts number, in percentage of the coculture control condition, Values ([1]; D6, 3 mg/ml): 515% and 398% and 508%
IL-6 secretion in percentage of the coculture control condition ([2]; 2 mg/ml, D3): 72%
IL-6 secretion in percentage of the coculture control condition ([2]; 2 mg/ml, D6): 53%
IL-6 secretion in percentage of the coculture control condition ([2]; 3 mg/ml, D3): 73%
IL-6 secretion in percentage of the coculture control condition ([2]; 3 mg/ml, D6): 61%
secretion of IL-6 in percentage of the coculture control condition, Mean (%) ([2]; D3, 2 mg/ml): 72%
secretion of IL-6 in percentage of the coculture control condition, Values (%) ([2]; D3, 2 mg/ml): 56% and 78% and 82%
secretion of IL-6 in percentage of the coculture control condition, Mean (%) ([2]; D3, 3 mg/ml): 73%
secretion of IL-6 in percentage of the coculture control condition, Values (%) ([2]; D3, 3 mg/ml): 75% and 63% and 79%
secretion of IL-6 in percentage of the coculture control condition, Mean (%) ([2]; D6, 2 mg/ml): 53%
secretion of IL-6 in percentage of the coculture control condition, Values (%) ([2]; D6, 2 mg/ml): 46% and 66% and 45%
secretion of IL-6 in percentage of the coculture control condition, Mean (%) ([2]; D6, 3 mg/ml): 61%
secretion of IL-6 in percentage of the coculture control condition, Values (%) ([2]; D6, 3 mg/ml): 59% and 54% and 71%
HA secretion, normalized by fibroblasts number, % of the control ([3]; 1 mg/ml, 3 days of treatment): 140%
HA secretion, normalized by fibroblasts number, % of the control ([3]; 1 mg/ml, 6 days of treatment): 189%
HA secretion, normalized by fibroblasts number, % of the control ([3]; 2 mg/ml, 6 days of treatment): 225%
HA secretion, normalized by fibroblasts number, % of the control ([3]; 3 mg/ml, 6 days of treatment): 164%
secretion of HA, normalized by fibroblasts number, in percentage of the coculture control condition, Mean (%) ([3]; D3, 1 mg/ml): 140%
secretion of HA, normalized by fibroblasts number, in percentage of the coculture control condition, Values (%) ([3]; D3, 1 mg/ml): 127% and 123% and 169%
secretion of HA, normalized by fibroblasts number, in percentage of the coculture control condition, Mean (%) ([3]; D3, 2 mg/ml): 90%
secretion of HA, normalized by fibroblasts number, in percentage of the coculture control condition, Values (%) ([3]; D3, 2 mg/ml): 96% and 93% and 80%
secretion of HA, normalized by fibroblasts number, in percentage of the coculture control condition, Mean (%) ([3]; D3, 3 mg/ml): 85%
secretion of HA, normalized by fibroblasts number, in percentage of the coculture control condition, Values (%) ([3]; D3, 3 mg/ml): 83% and 75% and 98%
secretion of HA, normalized by fibroblasts number, in percentage of the coculture control condition, Mean (%) ([3]; D6, 1 mg/ml): 189%
secretion of HA, normalized by fibroblasts number, in percentage of the coculture control condition, Values (%) ([3]; D6, 1 mg/ml): 172% and 157% and 237%
secretion of HA, normalized by fibroblasts number, in percentage of the coculture control condition, Mean (%) ([3]; D6, 2 mg/ml): 225%
secretion of HA, normalized by fibroblasts number, in percentage of the coculture control condition, Values (%) ([3]; D6, 2 mg/ml): 240% and 233% and 203%
secretion of HA, normalized by fibroblasts number, in percentage of the coculture control condition, Mean (%) ([3]; D6, 3 mg/ml): 164%
secretion of HA, normalized by fibroblasts number, in percentage of the coculture control condition, Values (%) ([3]; D6, 3 mg/ml): 121% and 213% and 159%
Cytotoxicity at the end of the culture, normalized by cell number, Mean ([4]; AcMC + 1 mg/ml): 81.7 % of AcMC condition
Cytotoxicity at the end of the culture, normalized by cell number, Values ([4]; AcMC + 1 mg/ml): 53.1 % of AcMC condition and 81.8 % of AcMC condition and 110.4 % of AcMC condition
Cytotoxicity at the end of the culture, normalized by cell number, Mean ([4]; AcMC + 2 mg/ml): 53.3 % of AcMC condition
Cytotoxicity at the end of the culture, normalized by cell number, Values ([4]; AcMC + 2 mg/ml): 50.5 % of AcMC condition and 50.6 % of AcMC condition and 58.9 % of AcMC condition
